This data set addresses HSD17B13. To be noted: ASO, HepaRG.

After the bases stand the sugars from the 5' end (letter, count) and the backbone: PS all phosphorothioate, else s phosphorothioate and o phosphodiester by linkage. Methylation of C is not given here. e = 2'-O-(2-methoxyethyl) (MOE); k = constrained ethyl (cEt); d = 2'-deoxy (DNA); m = 2'-O-methyl

“ACATTAGCAAGCTAAG (sugars kkdddddddddkekek, PS)” yielded a target mRNA inhibition (1 µM) of 23%.

Under “1 µM”, ACCAAACTTCCAGCAG (sugars k3 d10 k3, PS) registered a target mRNA inhibition of 31%.

ACCAAGAGACACCACC (sugars k3 d10 k3, PS) yielded a target mRNA inhibition (1 µM) of 41%.

As for ACCAAGGCCATGACAT (sugars k3 d10 k3, PS), the target mRNA inhibition (1 µM) was found to be 17%.

For the sequence ACCAAGTAGCTTACAT (sugars k3 d10 k3, PS), the target mRNA inhibition (1 µM) stood at 2%.

With ACCAATCCTCAGCTTT (sugars k3 d10 k3, PS), for the setting “1 µM”, the target mRNA inhibition came to 11%.

As to ACCCATTCTAACTTGA (sugars k3 d10 k3, PS), the target mRNA inhibition (1 µM) amounted to 0%.

In turn, ACCCGCCCTTAAGTCA (sugars k3 d10 k3, PS) registered a target mRNA inhibition (1 µM) of 48%.

Consider “ACCGTTTTGGGCTAAT (sugars k3 d9 k3 e1, PS)”, for which the target mRNA inhibition (1 µM) is 73%.

In the case of ACCTTGAATGAGTGGT (sugars k3 d10 k3, PS), where the note is “1 µM”, the target mRNA inhibition stood at 26%.

Sequence ACTAATATTGAGGCAC (sugars k3 d10 k3, PS) gave a target mRNA inhibition (1 µM) of 19%.

In turn, “ACTAATATTGAGGCAC (sugars kkdddddddddkekek, PS)” displayed a target mRNA inhibition (1 µM) of 27%.

For “ACTACAAGAGGTTATT (sugars k3 d9 k3 e1, PS)”, where the note is “1 µM”, the target mRNA inhibition stood at 58%.

In turn, ACTAGGAAGTGATCCA (sugars k3 d10 k3, PS) gave a target mRNA inhibition (1 µM) of 58%.

Take ACTCCCCAAACATGGA (sugars k3 d10 k3, PS): the target mRNA inhibition (1 µM) stood at 48%.

In the case of ACTGAAGGTCTGAGCT (sugars k3 d10 k3, PS), the target mRNA inhibition (1 µM) was found to be 20%.

For the sequence ACTGAGTAAACGACTC (sugars k3 d10 k3, PS), the target mRNA inhibition (1 µM) is 45%.

On to “ACTGCTGCTAGTGCCA (sugars kkdddddddddkekek, PS)”, for which, for the setting “1 µM”, the target mRNA inhibition came to 39%.

Where the note is “1 µM”, “ACTTGAACAGTCTTAA (sugars k3 d1 m1 d8 k3, PS)” showed a target mRNA inhibition of 29%.

“ACTTGAACAGTCTTAA (sugars k3 d9 k3 e1, PS)” returned a target mRNA inhibition (1 µM) of 60%.

Sequence “ACTTGAACAGTCTTAA (sugars kkdddddddddkekek, PS)” yielded a target mRNA inhibition (1 µM) of 60%.

Consider ACTTGATCTCTTAGCT (sugars k3 d10 k3, PS), for which the target mRNA inhibition (1 µM) stood at 59%.

Turning to ACTTTTAGTCAGGTAG (sugars k3 d10 k3, PS), under “1 µM”, the target mRNA inhibition was 26%.

Take ACTTTTGGTGGACTTC (sugars k3 d10 k3, PS): the target mRNA inhibition (1 µM) worked out at 0%.

AGAAATTTGTGAACCT (sugars k3 d10 k3, PS) displayed a target mRNA inhibition (1 µM) of 39%.

Where the note is “1 µM”, AGAAGGACTTTCATAG (sugars k3 d10 k3, PS) had a target mRNA inhibition of 46%.

Sequence AGAATTAAGGGCTATA (sugars k3 d10 k3, PS) came in with a target mRNA inhibition (1 µM) of 45%.

The sequence AGACAATGACATAGAC (sugars k3 d10 k3, PS) gave a target mRNA inhibition (1 µM) of 14%.

As for AGACAGACTGTTGAGC (sugars k3 d10 k3, PS), where the note is “1 µM”, the target mRNA inhibition came to 74%.

With AGACCAAGTAGCTTAC (sugars k3 d10 k3, PS), the target mRNA inhibition (1 µM) amounted to 42%.

Where the note is “1 µM”, “AGACTTTGAGACTCTT (sugars k3 d9 k3 e1, PS)” had a target mRNA inhibition of 41%.

Take “AGACTTTGAGACTCTT (sugars kkdddddddddkekek, PS)”: where the note is “1 µM”, the target mRNA inhibition was determined as 55%.

Consider “AGACUTTGAGACTCTT (sugars k3 d1 m1 d8 k3, PS)”, for which the target mRNA inhibition (1 µM) worked out at 48%.

In the case of “AGAGAGTAATCAGTTT (sugars k3 d9 k3 e1, PS)”, under “1 µM”, the target mRNA inhibition turned out to be 51%.

AGAGAGTAATCAGTTT (sugars k3 d10 k3, PS) showed a target mRNA inhibition (1 µM) of 39%.

As to AGAGCATAAGTTACCA (sugars k3 d10 k3, PS), the target mRNA inhibition is, setting by setting: (0.02 µM) 4%; (0.078 µM) 11%; (0.313 µM) 50%; (1 µM) 88%; (1.25 µM) 78%; (5 µM) 79%.

Turning to “AGAGGCTAGGGAAATC (sugars k3 d9 k3 e1, PS)”, the target mRNA inhibition (1 µM) was determined as 68%.

AGAGGGTCCACTTTTG (sugars k3 d10 k3, PS) gave a target mRNA inhibition (1 µM) of 34%.

For the setting “1 µM”, AGAGTATTTCCTCTGG (sugars k3 d10 k3, PS) showed a target mRNA inhibition of 32%.

As for “AGAGTCGGTCACCTTT (sugars k3 d9 k3 e1, PS)”, the target mRNA inhibition (1 µM) was determined as 66%.

On to “AGAGTTGCACCGTTTT (sugars kkdddddddddkekek, PS)”, for which the target mRNA inhibition by setting is: (0.02 µM) 6%; (0.078 µM) 18%; (0.313 µM) 38%; (1 µM) 80%; (1.25 µM) 63%; (5 µM) 81%.

Take AGATCCCGTTCTTGCC (sugars k3 d10 k3, PS): the target mRNA inhibition by setting is: (0.02 µM) 0%; (0.078 µM) 20%; (0.313 µM) 47%; (1 µM) 68%; (1.25 µM) 72%; (5 µM) 76%.

For the setting “1 µM”, AGATGTACACTGACAA (sugars k3 d10 k3, PS) came in with a target mRNA inhibition of 66%.

In the case of AGCAAAGTTTGGGCAG (sugars k3 d10 k3, PS), the target mRNA inhibition (1 µM) came out at 44%.

AGCATAAGTTACCAGA (sugars k3 d10 k3, PS) showed a target mRNA inhibition (0.02 µM) of 14%; a target mRNA inhibition (0.078 µM) of 31%; a target mRNA inhibition (0.313 µM) of 49%; a target mRNA inhibition (1 µM) of 87%; a target mRNA inhibition (1.25 µM) of 73%; a target mRNA inhibition (5 µM) of 92%.

Consider AGCATTATTCACCACG (sugars k3 d10 k3, PS), for which the target mRNA inhibition (1 µM) is 53%.

In the case of AGCCACTGTGACGATG (sugars k3 d10 k3, PS), the target mRNA inhibition (1 µM) is 10%.

Where the note is “1 µM”, AGCCAGTACAGTTCCT (sugars k3 d10 k3, PS) registered a target mRNA inhibition of 58%.

For the setting “1 µM”, “AGCCAGTACAGTTCCT (sugars kkdddddddddkekek, PS)” returned a target mRNA inhibition of 49%.

Take AGCCTTAGAGTGAATC (sugars k3 d10 k3, PS): the target mRNA inhibition is 35% (0.02 µM); 54% (0.078 µM); 84% (0.313 µM); 74% (1 µM); 94% (1.25 µM); 89% (5 µM).

AGCTAGATACTCAATT (sugars k3 d10 k3, PS) registered a target mRNA inhibition (1 µM) of 2%.

In turn, AGCTATTGTCTTTGAT (sugars k3 d10 k3, PS) had a target mRNA inhibition (1 µM) of 39%.

As to AGCTGAGAGTTCTACA (sugars k3 d10 k3, PS), the target mRNA inhibition (1 µM) was found to be 67%.

Where the note is “1 µM”, AGCTGGTAAAGGTAAG (sugars k3 d10 k3, PS) had a target mRNA inhibition of 55%.

For AGCTGTGCACTCATTC (sugars k3 d10 k3, PS), the target mRNA inhibition (1 µM) worked out at 57%.

AGGAAGTGATCCATAT (sugars k3 d10 k3, PS) showed a target mRNA inhibition (1 µM) of 60%.

AGGATGATGTTCATGG (sugars k3 d10 k3, PS): the target mRNA inhibition came out at 25% (0.02 µM); 27% (0.078 µM); 71% (0.313 µM); 88% (1 µM); 80% (1.25 µM); 71% (5 µM).

The sequence AGGATGTTGACCTCAA (sugars k3 d10 k3, PS) yielded a target mRNA inhibition (1 µM) of 4%.

The sequence “AGGAUAGTCCATGCAA (sugars k3 d1 m1 d8 k3, PS)” came in with a target mRNA inhibition (1 µM) of 55%.

For AGGCAGTTGAAGTTGA (sugars k3 d10 k3, PS), for the setting “1 µM”, the target mRNA inhibition stood at 47%.

With “AGGCTGTAAGAGTCAG (sugars k3 d9 k3 e1, PS)”, the target mRNA inhibition (1 µM) was 49%.

For the sequence “AGGCUGTAAGAGTCAG (sugars k3 d1 m1 d8 k3, PS)”, the target mRNA inhibition (1 µM) was 52%.

For AGGGAAGATCTGGCTG (sugars k3 d10 k3, PS), the target mRNA inhibition (1 µM) worked out at 4%.

For AGGTAAGGAATCCCTT (sugars k3 d10 k3, PS), where the note is “1 µM”, the target mRNA inhibition was found to be 0%.

Sequence “AGGTTGAGATAAAGCT (sugars k3 d9 k3 e1, PS)” came in with a target mRNA inhibition (0.02 µM) of 0%; a target mRNA inhibition (0.078 µM) of 23%; a target mRNA inhibition (0.313 µM) of 46%; a target mRNA inhibition (1 µM) of 71%; a target mRNA inhibition (1.25 µM) of 64%; a target mRNA inhibition (5 µM) of 77%.

Take AGGTTGAGATAAAGCT (sugars k3 d10 k3, PS): the target mRNA inhibition is, setting by setting: (0.02 µM) 20%; (0.078 µM) 27%; (0.313 µM) 40%; (1 µM) 74%; (1.25 µM) 69%; (5 µM) 86%.

As for “AGGTTGAGATAAAGCT (sugars kkdddddddddkekek, PS)”, for the setting “1 µM”, the target mRNA inhibition worked out at 60%.

Regarding AGTAAACGACTCTGTA (sugars k3 d10 k3, PS), where the note is “1 µM”, the target mRNA inhibition worked out at 33%.

AGTAAATGATGGCAGG (sugars k3 d10 k3, PS): where the note is “1 µM”, the target mRNA inhibition worked out at 40%.

On to AGTAATCACAAGTAAG (sugars k3 d10 k3, PS), for which, under “1 µM”, the target mRNA inhibition amounted to 54%.

“AGTACAGTTCCTTTTC (sugars k3 d1 m1 d8 k3, PS)” yielded a target mRNA inhibition (1 µM) of 56%.

Consider AGTAGATTTGGTAGAG (sugars k3 d10 k3, PS), for which, under “1 µM”, the target mRNA inhibition is 67%.

As for “AGTAGTGTAAGCTGAG (sugars k3 d1 m1 d8 k3, PS)”, the target mRNA inhibition (1 µM) came out at 68%.

“AGTAGTGTAAGCTGAG (sugars kkdddddddddkekek, PS)” displayed a target mRNA inhibition (1 µM) of 52%.

In the case of AGTATAGTTATCTTCT (sugars k3 d10 k3, PS), the target mRNA inhibition (1 µM) worked out at 67%.

In turn, AGTATTCCATCTATCA (sugars k3 d10 k3, PS) had a target mRNA inhibition (1 µM) of 62%.

For the sequence AGTATTTGGGTGTTCT (sugars k3 d10 k3, PS), the target mRNA inhibition (1 µM) came to 17%.

For the origin of these results see the OligoGym collection.
